One experiment has as its target MSSK1 (Homo sapiens, UniProt Q9UPE1). Kind of experiment: Kinase selectivity panel. The class given is biochemical. The following applies: [ATP] = 1 mM.
Another experiment concerns the target MAPKAPK2 (Homo sapiens, UniProt P49137). Nature of the experiment: Kinase selectivity panel. The class given is biochemical. The following applies: [ATP] = 1 mM.
For another experiment, the target named is FLT3 (Homo sapiens, UniProt P36888). Kind of experiment: Kinase selectivity panel. It counts as biochemical. The following applies: [ATP] = 1 mM.
Chain of FLT3 (P36888 27-993): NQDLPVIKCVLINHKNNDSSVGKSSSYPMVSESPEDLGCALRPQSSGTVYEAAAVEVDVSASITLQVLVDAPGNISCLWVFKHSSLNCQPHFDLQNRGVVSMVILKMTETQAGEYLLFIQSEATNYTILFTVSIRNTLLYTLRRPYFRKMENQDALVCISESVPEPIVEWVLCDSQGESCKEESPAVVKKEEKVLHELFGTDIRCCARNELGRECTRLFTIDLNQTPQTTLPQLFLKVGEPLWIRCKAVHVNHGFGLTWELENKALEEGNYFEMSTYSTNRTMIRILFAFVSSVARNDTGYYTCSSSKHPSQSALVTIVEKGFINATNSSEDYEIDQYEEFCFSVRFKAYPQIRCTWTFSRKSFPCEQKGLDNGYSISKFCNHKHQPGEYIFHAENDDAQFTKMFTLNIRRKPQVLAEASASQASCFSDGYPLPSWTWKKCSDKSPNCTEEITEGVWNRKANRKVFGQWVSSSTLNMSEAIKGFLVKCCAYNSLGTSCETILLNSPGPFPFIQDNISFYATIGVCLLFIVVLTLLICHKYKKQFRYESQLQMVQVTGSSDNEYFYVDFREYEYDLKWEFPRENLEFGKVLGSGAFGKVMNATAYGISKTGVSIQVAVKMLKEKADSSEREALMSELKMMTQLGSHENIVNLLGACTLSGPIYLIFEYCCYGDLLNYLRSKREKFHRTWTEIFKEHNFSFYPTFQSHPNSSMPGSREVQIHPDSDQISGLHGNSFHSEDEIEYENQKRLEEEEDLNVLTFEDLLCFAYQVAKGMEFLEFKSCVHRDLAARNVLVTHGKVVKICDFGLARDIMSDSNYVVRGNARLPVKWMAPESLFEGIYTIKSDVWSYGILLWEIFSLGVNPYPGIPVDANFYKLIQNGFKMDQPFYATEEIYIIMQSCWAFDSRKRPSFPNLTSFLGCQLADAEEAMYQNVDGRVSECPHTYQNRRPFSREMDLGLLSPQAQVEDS
The next experiment addresses RPS6KB1 (Homo sapiens, UniProt P23443). Kind of experiment: Kinase selectivity panel. The class given is biochemical. The following applies: [ATP] = 1 mM.
Another experiment deals with PHKG2 (Homo sapiens, UniProt P15735). Nature of the experiment: Kinase selectivity panel. It counts as biochemical. The following applies: [ATP] = 1 mM.
Chain of PHKG2 (P15735 whole entry): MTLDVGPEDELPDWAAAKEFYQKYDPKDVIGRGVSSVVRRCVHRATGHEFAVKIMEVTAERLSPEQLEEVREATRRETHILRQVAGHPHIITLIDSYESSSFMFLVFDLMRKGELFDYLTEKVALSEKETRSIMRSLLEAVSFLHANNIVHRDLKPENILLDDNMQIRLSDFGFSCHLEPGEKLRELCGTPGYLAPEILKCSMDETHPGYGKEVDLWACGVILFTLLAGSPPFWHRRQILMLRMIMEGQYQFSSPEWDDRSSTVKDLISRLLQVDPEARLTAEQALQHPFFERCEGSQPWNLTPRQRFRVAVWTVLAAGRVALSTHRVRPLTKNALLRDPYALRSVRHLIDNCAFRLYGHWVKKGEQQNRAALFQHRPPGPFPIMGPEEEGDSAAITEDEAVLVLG
A further experiment concerns the target AKT1 (Homo sapiens, UniProt P31749). Kind of experiment: Kinase selectivity panel. The class given is biochemical. The following applies: [ATP] = 1 mM.
For the next experiment, the target named is EPHA2 (Homo sapiens, UniProt P29317). Kind of experiment: Kinase selectivity panel. The class given is biochemical. The following applies: [ATP] = 1 mM.
In the next experiment the target is LRRK2 (Homo sapiens, UniProt Q5S007). Kind of experiment: Kinase selectivity panel. The following applies: [ATP] = 1 mM. It counts as biochemical.
In experiment [1] the target is Per-Arnt-Sim (PAS) kinase (Homo sapiens, UniProt Q96RG2). Nature of the experiment: PAS kinase activity, further evaluation. It counts as biochemical.
Chain of Per-Arnt-Sim (PAS) kinase (Q96RG2 whole entry): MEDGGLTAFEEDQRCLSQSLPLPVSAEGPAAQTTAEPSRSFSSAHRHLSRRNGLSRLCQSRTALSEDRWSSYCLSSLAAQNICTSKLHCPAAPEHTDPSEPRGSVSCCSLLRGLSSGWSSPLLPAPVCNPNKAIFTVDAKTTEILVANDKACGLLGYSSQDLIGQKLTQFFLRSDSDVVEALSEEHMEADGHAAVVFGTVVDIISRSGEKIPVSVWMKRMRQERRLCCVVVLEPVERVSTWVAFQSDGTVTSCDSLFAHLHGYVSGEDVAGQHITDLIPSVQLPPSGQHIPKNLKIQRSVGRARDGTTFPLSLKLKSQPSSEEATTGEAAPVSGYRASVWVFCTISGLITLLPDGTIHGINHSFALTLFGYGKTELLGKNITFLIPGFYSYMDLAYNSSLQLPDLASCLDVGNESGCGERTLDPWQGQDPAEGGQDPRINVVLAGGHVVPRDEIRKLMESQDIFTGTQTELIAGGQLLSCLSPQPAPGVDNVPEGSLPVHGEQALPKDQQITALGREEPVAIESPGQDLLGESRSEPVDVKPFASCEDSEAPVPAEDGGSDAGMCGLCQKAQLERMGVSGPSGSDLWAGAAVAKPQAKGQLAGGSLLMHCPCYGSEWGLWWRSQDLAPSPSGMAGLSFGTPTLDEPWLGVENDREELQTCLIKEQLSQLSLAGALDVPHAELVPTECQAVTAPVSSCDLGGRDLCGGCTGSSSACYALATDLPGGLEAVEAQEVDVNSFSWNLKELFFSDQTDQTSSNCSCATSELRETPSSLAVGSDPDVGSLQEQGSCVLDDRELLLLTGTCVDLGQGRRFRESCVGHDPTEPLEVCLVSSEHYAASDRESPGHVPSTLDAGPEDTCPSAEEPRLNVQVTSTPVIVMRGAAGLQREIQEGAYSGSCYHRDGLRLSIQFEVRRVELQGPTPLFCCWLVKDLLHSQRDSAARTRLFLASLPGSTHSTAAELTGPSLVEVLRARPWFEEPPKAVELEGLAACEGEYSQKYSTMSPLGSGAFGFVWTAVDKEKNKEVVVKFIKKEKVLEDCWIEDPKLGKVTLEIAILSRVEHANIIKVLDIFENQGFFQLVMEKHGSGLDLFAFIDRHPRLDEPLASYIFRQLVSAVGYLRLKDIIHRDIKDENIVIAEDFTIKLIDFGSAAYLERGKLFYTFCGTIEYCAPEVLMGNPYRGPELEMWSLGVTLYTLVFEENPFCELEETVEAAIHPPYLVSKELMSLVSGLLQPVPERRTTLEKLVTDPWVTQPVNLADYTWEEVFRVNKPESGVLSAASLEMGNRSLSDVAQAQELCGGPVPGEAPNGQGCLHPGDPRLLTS
For experiment [2], the system named is BAD phosphorylation in whole blood spiked with MOLM-16 cells. Nature of the experiment: BAD phosphorylation in whole blood samples spiked with tumor cells, treated ex vivo. The following applies: MOLM16. The class given is cell-based.
Another experiment has as its target PAK4 (Homo sapiens, UniProt O96013). Nature of the experiment: Kinase selectivity panel. The class given is biochemical. The following applies: [ATP] = 1 mM.
The next experiment addresses PKCD (Homo sapiens, UniProt Q05655). Kind of experiment: Kinase selectivity panel. The class given is biochemical. The following applies: [ATP] = 1 mM.
The target of a further experiment is IKKB (Homo sapiens, UniProt O14920). Kind of experiment: Kinase selectivity panel. It counts as biochemical. The following applies: [ATP] = 1 mM.
The test system of experiment [3] is pBAD, pSTAT3 and MYC in INA-6 (MM) tumors. Kind of experiment: pBAD, pSTAT3 and MYC levels in INA-6 (MM) tumors. The following applies: INA-6 (MM) tumors in mice. The class given is in vivo, mouse. The procedure:
The PI3Kδ inhibitor INCB050465 (10 mg/kg once a day orally) was evaluated in combination with INCB053914 (30 mg/kg once a day orally) in mice bearing Pfeiffer (DLBCL) xenografts, a model sensitive to PI3Kδ inhibition (eight mice/group). Cytarabine was administered via intraperitoneal injection at a standard dose of 20 mg/kg twice a week, in combination with oral INCB053914 at a submaximally efficacious dose of 20 mg/kg twice a day for 12 days in mice bearing human KG-1 AML xenografts, a cytarabine-sensitive model (eight mice/group). The oral JAK1-selective inhibitor itacitinib (60 mg/kg twice a day orally) was assessed in combination with INCB053914 (100 mg/kg twice a day orally) after 8 days of administration to SCID mice bearing INA-6 (MM) xenografts (eight mice/group), a model sensitive to JAK inhibition.

Another experiment deals with KIT (Homo sapiens, UniProt P10721). Nature of the experiment: Kinase selectivity panel. It counts as biochemical. The following applies: [ATP] = 1 mM.
The target in a further experiment is MINK (Homo sapiens, UniProt Q8N4C8). Kind of experiment: Kinase selectivity panel. It counts as biochemical. The following applies: [ATP] = 1 mM.
Another experiment deals with TIE2 (Homo sapiens, UniProt Q02763). Kind of experiment: Kinase selectivity panel. It counts as biochemical. The following applies: [ATP] = 1 mM.
Chain of TIE2 (Q02763 23-1124, species assumed): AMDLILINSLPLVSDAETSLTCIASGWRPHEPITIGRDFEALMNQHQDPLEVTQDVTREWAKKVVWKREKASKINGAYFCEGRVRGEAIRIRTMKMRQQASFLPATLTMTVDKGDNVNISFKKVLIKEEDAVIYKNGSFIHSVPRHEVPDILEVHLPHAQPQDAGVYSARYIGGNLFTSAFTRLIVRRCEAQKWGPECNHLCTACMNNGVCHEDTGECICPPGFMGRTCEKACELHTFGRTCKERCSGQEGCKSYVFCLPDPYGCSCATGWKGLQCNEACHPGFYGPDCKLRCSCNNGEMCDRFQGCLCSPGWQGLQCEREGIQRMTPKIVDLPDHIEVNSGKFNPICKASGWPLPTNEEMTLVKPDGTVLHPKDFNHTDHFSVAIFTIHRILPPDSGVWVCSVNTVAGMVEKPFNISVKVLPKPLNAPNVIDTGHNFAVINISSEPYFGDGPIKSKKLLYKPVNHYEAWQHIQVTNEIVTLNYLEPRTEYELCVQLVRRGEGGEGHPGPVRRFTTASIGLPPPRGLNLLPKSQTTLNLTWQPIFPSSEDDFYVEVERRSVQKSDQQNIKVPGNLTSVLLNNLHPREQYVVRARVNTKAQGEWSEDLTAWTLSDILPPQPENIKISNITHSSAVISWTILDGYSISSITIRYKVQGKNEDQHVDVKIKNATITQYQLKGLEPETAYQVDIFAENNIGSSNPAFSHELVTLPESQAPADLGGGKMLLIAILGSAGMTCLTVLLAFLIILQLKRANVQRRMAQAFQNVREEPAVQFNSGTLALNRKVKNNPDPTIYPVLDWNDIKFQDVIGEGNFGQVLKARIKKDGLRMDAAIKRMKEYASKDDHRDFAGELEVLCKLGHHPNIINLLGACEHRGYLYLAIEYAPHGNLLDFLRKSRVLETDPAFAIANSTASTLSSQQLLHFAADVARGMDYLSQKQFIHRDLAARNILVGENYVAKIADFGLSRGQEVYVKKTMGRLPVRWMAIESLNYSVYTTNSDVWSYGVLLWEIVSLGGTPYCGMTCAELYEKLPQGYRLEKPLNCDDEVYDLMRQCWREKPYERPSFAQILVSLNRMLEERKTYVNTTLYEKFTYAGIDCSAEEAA
The subject of experiment [4] is PIM kinase substrates (p70S6K/S6 and 4E-BP1) in MOLM-16, Pfeiffer and KMS-12-PE/BM cell lines. Kind of experiment: Western blot of PIM kinase substrate phosphorylation in cell lines. It counts as cell-based. The following applies: MOLM-16 (AML), Pfeiffer (DLBCL), KMS-12-PE/BM (MM); 0 to 1 μM, 2 hours. The procedure: Inhibition of PIM kinase substrate phosphorylation (BAD, S6, p70S6K, and 4E-BP1) and the upregulation of PIM2 (chosen because of its reduced susceptibility to in vitro kinase inhibition) by INCB053914 was determined by incubating 10^6 MOLM-16 (AML), Pfeiffer (DLBCL), KMS-12-PE (MM), and KMS-12-BM (MM) cells with INCB053914 at concentrations ranging from 0 (phosphate-buffered saline [PBS]) to 1 μM for 2 hours in Roswell Park Memorial Institute (RPMI) medium. Cells were centrifuged at 1,000 rpm for 10 minutes and lysed with 1× lysis buffer (Cell Signaling Technology, Danvers, Massachusetts) supplemented with 1 mM phenylmethane sulfonyl fluoride (Sigma-Aldrich, St Louis, Missouri) and proteinase inhibitor cocktail (CalBiochem, San Diego, California). Cell lysates were stored at –80°C before determining phosphoprotein and PIM2 levels by Western blotting using anti-pBAD (S112), anti-p4E-BP1 (S65), pp70S6K (T389), pS6 (S285/S286), and anti-PIM2 antibodies (Cell Signaling Technology).

The next experiment has as its target PIM1 (Homo sapiens, UniProt P11309). Kind of experiment: Kinase selectivity panel. The following applies: [ATP] = 1 mM. The class given is biochemical.

Molecules are shown by their SMILES.

Here are results for one compound from publication PMC6013247, “Preclinical characterization of INCB053914, a novel pan-PIM kinase inhibitor, alone and in combination with anticancer agents, in models of hematologic malignancies” (PLoS ONE, 2018).

Usually IC50 stands for the concentration at which inhibition is half-maximal. Read a low IC50 as greater potency in that assay.

Chain of MAPKAPK2 (P49137 whole entry): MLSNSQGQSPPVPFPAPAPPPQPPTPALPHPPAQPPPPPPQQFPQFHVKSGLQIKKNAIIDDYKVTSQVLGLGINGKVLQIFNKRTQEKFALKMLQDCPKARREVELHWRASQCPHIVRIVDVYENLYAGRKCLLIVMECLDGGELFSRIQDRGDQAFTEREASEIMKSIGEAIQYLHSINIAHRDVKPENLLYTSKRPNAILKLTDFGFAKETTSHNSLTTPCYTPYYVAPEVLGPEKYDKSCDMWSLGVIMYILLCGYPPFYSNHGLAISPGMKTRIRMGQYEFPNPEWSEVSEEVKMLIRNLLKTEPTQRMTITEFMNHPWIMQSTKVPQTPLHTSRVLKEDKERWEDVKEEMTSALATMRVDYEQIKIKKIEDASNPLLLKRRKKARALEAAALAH
Chain of PIM1 (P11309 whole entry): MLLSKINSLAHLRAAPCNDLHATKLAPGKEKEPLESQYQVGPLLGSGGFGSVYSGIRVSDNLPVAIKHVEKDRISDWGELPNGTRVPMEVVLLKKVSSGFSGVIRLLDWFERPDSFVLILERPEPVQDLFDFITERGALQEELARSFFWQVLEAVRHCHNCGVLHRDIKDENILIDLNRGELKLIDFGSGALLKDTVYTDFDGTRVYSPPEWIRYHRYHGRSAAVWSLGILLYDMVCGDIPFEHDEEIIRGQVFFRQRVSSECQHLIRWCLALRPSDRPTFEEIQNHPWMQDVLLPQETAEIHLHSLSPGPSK
Chain of RPS6KB1 (P23443 whole entry): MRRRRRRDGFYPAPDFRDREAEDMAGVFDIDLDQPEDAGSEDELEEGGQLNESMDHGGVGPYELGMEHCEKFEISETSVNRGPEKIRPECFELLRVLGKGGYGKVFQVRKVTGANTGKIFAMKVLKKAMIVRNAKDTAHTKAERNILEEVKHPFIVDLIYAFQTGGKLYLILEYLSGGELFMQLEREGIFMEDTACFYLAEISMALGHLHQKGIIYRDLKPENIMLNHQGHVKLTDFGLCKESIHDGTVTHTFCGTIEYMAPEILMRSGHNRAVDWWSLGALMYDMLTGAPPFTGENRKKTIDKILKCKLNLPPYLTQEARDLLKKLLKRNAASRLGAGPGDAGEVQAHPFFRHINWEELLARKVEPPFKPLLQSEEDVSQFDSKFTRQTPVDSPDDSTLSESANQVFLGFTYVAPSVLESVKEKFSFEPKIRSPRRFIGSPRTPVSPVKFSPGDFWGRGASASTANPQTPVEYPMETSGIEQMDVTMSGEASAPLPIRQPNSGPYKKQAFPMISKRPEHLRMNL

As to `C[C@H]1CN(c2c(NC(=O)c3ccc(F)c(-c4c(F)cccc4F)n3)cnc3c2CC[C@H]3O)C[C@@H](N)[C@@H]1O.O=P(O)(O)O` [INCB053914, N-((R)-4-((3R,4R,5S)-3-amino-4-hydroxy-5-methylpiperidin-1-yl)-7-hydroxy-6,7-dihydro-5H-cyclopenta[b]pyridin-3-yl)-6-(2,6-difluorophenyl)-5-fluoropicolinamide phosphate], the IC50 at MSSK1, against MAPKAPK2, against FLT3, against RPS6KB1, against PHKG2 and at AKT1 was more than 20 µM throughout. Further, the IC50 is more than 20 µM against EPHA2; more than 20 µM on LRRK2; 0.076 µM in experiment [2]; more than 20 µM at PAK4; more than 20 µM at PKCD; more than 20 µM at IKKB. In addition, the IC50 against KIT is more than 20 µM; on MINK it was more than 20 µM; against TIE2 it was more than 20 µM; on PIM1 it was less than 0.012 µM. The “effect on PAS kinase activity relative to PIM2” value in [1] was “approximately equipotent effects on PIM2 and PAS kinase activities”. Besides, the MYC levels entry in [3] is recorded as “decreased MYC levels”. Moreover, the “level of pBAD” value in experiment [3] was “decrease”. In [4], the “phosphorylation of downstream PIM kinase substrates (p70S6K/S6 and 4E-BP1)” value is “inhibited the phosphorylation of downstream PIM kinase substrates (p70S6K/S6 and 4E-BP1) in a dose-dependent manner”.
